From ChEMBL document CHEMBL4000192, “Identification and optimization of a novel series of indoleamine 2,3-dioxygenase inhibitors” (Bioorg Med Chem Lett, 2017)

Key:
[1] = target: T1, Indoleamine 2,3-dioxygenase 1 (Homo sapiens, UniProt P14902); assay: Inhibition of IDO1 in IFN-gamma stimulated human HeLa cells assessed as inhibition of kynurenine production preincubated with cells followed by IFN-gamma addition measured after 20 hrs; type: cell-based
Target sequence in this assay (P14902 whole entry): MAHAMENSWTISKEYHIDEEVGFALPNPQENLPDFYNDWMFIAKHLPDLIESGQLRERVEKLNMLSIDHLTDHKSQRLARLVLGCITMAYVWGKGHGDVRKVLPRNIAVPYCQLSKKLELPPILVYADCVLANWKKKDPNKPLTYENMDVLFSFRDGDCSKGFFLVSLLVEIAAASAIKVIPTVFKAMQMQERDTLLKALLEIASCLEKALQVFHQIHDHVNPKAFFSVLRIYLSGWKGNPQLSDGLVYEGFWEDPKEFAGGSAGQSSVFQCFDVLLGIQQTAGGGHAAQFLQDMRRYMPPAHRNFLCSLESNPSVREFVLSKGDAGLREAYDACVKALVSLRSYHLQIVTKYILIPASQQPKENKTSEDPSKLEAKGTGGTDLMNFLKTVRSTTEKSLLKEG

HeLa = assay: Cytotoxic activity against human HeLa cells by […]; type: cell-based
[2] = Metabolic stability in rat liver microsomes assessed as parent compound remaining at 0.5 uM after 10 mins; type: ADME, microsome; conditions: read-out: Stability
Cytochrome P450 3A4 [3] = target: T2, Cytochrome P450 3A4 (Homo sapiens, UniProt P08684); assay: Inhibition of CYP3A4 (unknown origin) using BFC as substrate; type: ADME
T2 sequence (P08684 whole entry): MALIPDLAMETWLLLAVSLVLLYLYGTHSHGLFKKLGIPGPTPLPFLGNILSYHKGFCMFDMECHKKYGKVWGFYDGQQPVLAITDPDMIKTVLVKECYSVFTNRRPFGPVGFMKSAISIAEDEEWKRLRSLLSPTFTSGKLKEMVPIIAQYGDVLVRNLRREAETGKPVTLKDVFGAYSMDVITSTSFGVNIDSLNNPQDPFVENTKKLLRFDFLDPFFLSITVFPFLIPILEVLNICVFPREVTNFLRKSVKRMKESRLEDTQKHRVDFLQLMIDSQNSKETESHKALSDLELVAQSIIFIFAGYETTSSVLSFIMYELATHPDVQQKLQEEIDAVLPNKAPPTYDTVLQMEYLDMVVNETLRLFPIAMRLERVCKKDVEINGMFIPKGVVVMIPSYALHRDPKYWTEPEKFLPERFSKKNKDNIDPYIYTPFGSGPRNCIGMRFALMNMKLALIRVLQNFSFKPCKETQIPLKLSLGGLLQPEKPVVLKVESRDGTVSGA

Cytochrome P450 2C19 = Cytochrome P450 2C19 (Homo sapiens, UniProt P33261); assay: Inhibition of CYP2C19 (unknown origin); type: ADME
Chain of Cytochrome P450 2C19 (P33261 whole entry): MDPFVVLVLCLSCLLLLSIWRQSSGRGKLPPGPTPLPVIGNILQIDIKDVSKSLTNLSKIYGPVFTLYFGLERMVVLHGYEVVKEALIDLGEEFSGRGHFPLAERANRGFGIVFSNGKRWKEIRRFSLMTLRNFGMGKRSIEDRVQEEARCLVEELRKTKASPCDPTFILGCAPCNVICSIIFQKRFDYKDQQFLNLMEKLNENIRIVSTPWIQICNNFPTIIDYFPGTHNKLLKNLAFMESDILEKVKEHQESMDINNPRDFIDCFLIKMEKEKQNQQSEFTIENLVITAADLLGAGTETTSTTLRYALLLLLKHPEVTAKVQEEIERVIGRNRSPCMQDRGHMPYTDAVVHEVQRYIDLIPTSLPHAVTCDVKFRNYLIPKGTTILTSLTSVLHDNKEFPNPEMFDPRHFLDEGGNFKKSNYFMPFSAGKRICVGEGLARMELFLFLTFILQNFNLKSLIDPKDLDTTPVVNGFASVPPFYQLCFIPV

[4] = Metabolic stability in mouse liver microsomes assessed as parent compound remaining at 0.5 uM after 10 mins; type: ADME, microsome; conditions: read-out: Stability
Cytochrome P450 3A4 [5] = target: T2, Cytochrome P450 3A4; assay: Inhibition of CYP3A4 (unknown origin) using BZR as substrate; type: ADME
Cytochrome P450 2B6 = target: T3, Cytochrome P450 2B6 (Homo sapiens, UniProt P20813); assay: Inhibition of CYP2B6 (unknown origin); type: ADME
T3 sequence (P20813 whole entry): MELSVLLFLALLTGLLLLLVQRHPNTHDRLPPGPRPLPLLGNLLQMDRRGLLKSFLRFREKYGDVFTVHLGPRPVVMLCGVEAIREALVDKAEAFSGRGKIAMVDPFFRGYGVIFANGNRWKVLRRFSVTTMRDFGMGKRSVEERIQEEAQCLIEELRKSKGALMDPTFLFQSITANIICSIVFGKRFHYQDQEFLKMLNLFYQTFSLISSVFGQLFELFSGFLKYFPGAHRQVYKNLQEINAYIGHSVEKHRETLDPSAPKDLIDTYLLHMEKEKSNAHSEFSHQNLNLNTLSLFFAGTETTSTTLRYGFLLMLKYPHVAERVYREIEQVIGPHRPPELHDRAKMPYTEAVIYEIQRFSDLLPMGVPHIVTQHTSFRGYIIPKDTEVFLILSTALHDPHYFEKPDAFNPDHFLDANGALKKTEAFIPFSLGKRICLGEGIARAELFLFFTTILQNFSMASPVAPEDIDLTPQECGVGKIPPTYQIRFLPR

Cytochrome P450 2C9 = Cytochrome P450 2C9 (Homo sapiens, UniProt P11712); assay: Inhibition of CYP2C9 (unknown origin); type: ADME
Chain of Cytochrome P450 2C9 (P11712 whole entry): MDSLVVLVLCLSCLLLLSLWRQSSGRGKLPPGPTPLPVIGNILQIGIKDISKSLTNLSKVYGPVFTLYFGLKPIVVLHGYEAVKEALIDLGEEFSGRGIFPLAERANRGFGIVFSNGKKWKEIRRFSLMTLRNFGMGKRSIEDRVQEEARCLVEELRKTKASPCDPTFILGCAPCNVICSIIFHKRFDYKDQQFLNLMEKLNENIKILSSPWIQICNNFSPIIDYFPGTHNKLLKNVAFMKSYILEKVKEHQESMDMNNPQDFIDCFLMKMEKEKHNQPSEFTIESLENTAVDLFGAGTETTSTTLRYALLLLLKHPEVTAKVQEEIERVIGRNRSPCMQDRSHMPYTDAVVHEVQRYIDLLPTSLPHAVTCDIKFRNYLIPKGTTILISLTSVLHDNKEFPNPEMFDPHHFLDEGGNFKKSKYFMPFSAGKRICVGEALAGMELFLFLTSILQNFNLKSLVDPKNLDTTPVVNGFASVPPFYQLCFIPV

[6] = Metabolic stability in human liver microsomes assessed as parent compound remaining at 0.5 uM after 10 mins; type: ADME, microsome; conditions: read-out: Stability
Cytochrome P450 2C8 = target: T4, Cytochrome P450 2C8 (Homo sapiens, UniProt P10632); assay: Inhibition of CYP2C8 (unknown origin); type: ADME
T4 sequence (P10632 whole entry): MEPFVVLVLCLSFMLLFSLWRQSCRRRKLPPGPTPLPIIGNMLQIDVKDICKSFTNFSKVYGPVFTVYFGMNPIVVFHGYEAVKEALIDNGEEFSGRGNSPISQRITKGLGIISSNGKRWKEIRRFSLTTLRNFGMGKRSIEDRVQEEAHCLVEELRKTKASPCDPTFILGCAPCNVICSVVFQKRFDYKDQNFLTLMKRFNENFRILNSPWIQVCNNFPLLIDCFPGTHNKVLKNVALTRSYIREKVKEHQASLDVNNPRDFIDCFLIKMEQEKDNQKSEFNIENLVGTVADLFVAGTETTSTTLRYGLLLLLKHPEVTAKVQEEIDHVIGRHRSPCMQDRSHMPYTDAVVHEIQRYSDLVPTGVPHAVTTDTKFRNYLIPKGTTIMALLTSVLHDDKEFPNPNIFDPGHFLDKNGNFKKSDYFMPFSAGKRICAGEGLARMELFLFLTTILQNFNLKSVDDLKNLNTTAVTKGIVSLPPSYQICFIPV

Cytochrome P450 2D6 = Cytochrome P450 2D6 (Homo sapiens, UniProt P10635); assay: Inhibition of CYP2D6 (unknown origin); type: ADME
Chain of Cytochrome P450 2D6 (P10635 whole entry): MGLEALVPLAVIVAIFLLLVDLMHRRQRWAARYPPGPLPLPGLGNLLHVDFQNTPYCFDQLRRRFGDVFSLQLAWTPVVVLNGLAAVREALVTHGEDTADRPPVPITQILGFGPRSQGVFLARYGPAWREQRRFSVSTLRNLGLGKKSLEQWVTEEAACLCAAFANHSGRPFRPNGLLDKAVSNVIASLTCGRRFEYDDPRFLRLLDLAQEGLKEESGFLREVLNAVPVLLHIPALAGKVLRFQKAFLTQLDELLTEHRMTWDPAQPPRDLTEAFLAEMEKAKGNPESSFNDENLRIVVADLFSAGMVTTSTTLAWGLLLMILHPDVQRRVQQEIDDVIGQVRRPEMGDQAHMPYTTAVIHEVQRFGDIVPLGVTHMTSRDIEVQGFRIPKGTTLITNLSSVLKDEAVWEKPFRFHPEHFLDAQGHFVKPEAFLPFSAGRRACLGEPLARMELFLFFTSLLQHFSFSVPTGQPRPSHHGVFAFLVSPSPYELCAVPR

Cytochrome P450 1A2 = target: T5, Cytochrome P450 1A2 (Homo sapiens, UniProt P05177); assay: Inhibition of CYP1A2 (unknown origin); type: ADME
T5 sequence (P05177 whole entry): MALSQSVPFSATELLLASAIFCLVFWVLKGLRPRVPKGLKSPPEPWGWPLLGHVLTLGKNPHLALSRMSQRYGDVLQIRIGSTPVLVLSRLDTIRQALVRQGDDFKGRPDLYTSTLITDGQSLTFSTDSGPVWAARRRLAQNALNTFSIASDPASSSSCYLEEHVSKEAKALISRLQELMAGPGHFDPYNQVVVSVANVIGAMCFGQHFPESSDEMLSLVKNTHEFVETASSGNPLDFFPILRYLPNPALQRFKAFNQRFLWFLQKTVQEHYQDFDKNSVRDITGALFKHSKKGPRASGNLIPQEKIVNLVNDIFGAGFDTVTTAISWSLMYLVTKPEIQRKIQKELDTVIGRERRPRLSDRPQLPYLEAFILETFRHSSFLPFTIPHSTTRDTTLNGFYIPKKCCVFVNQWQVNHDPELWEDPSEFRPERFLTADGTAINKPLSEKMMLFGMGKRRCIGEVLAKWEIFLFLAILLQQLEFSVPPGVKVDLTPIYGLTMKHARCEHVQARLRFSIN

[7] = target: T1, Indoleamine 2,3-dioxygenase 1; assay: Inhibition of IDO1 (unknown origin) at 25 uM using tryptophan as substrate preincubated for 15 mins followed by substrate addition by high-throughput screening assay relative to control
Target sequence in this assay (P14902 whole entry, looked up): as the sequence (P14902 whole entry) above

[8] = target: T1, Indoleamine 2,3-dioxygenase 1; assay: Inhibition of IDO1 (unknown origin) using tryptophan as substrate preincubated for 15 mins followed by substrate addition by high-throughput screening assay
Target sequence in this assay (P14902 whole entry): as above

Cc1ccc(NC(=O)Nc2cc(-c3cc(Cl)cc(C(=O)O)c3)ccc2Oc2ccccc2C(C)(C)C)cc1
IC50 [1]: 0.25 µM | IC50 (HeLa): > 30 µM

COc1ccc(-c2ccc(Oc3ccccc3C#N)c(NC(=O)Nc3ccc(C)cc3)c2)cc1C(=O)O
IC50 [1]: 6 µM | IC50 (HeLa): > 30 µM

Cc1cccc(NC(=O)Nc2cc(-c3cccc(C(=O)O)c3)ccc2Oc2ccccc2C(C)(C)C)c1
IC50 (HeLa): > 30 µM

CC(C)(C)c1ccccc1Oc1ccc(-c2cccc(C(=O)O)c2)cc1NC(=O)Nc1ccc(Cl)cc1
IC50 (HeLa): > 30 µM

COc1ccc(-c2ccc(Oc3cccc4c3CCCC4)c(NC(=O)Nc3ccccc3Cl)c2)cc1C(=O)O
remaining at 10 min, 0.5 µM [2]: 83% | IC50 (Cytochrome P450 3A4 [3]): > 3 µM | IC50 [1]: 0.022 µM | IC50 (Cytochrome P450 2C19): > 3 µM | remaining at 10 min, 0.5 µM [4]: 74% | IC50 (Cytochrome P450 3A4 [5]): > 3 µM | IC50 (Cytochrome P450 2B6): > 3 µM | IC50 (Cytochrome P450 2C9): > 3 µM | remaining at 10 min, 0.5 µM [6]: 74% | IC50 (HeLa): > 30 µM | IC50 (Cytochrome P450 2C8): > 3 µM | IC50 (Cytochrome P450 2D6): > 3 µM | IC50 (Cytochrome P450 1A2): > 3 µM

COc1ccc(-c2ccc(Oc3cccc(C(C)(C)C)c3)c(NC(=O)Nc3ccc(C)cc3)c2)cc1C(=O)O
IC50 (HeLa): > 30 µM

CCc1ccccc1Oc1ccc(-c2ccc(OC)c(C(=O)O)c2)cc1NC(=O)Nc1ccc(C)cc1
IC50 (HeLa): > 30 µM

COc1ccc(-c2ccc(Oc3ccccc3C(C)(C)CO)c(NC(=O)Nc3ccc(C)cc3)c2)cc1C(=O)O
IC50 [1]: 2.4 µM | IC50 (HeLa): > 30 µM

COc1ccc(-c2ccc(Oc3cccc4c3CCCC4)c(NC(=O)Nc3cccc(C)c3)c2)cc1C(=O)O
remaining at 10 min, 0.5 µM [2]: 71% | IC50 (Cytochrome P450 3A4 [3]): > 3 µM | IC50 (Cytochrome P450 2C19): > 3 µM | remaining at 10 min, 0.5 µM [4]: 86% | IC50 (Cytochrome P450 3A4 [5]): > 3 µM | IC50 (Cytochrome P450 2B6): > 3 µM | IC50 (Cytochrome P450 2C9): > 3 µM | remaining at 10 min, 0.5 µM [6]: 84% | IC50 (HeLa): > 30 µM | IC50 (Cytochrome P450 2C8): > 3 µM | IC50 (Cytochrome P450 2D6): > 3 µM | IC50 (Cytochrome P450 1A2): > 3 µM

CCCc1ccccc1Oc1ccc(-c2ccc(OC)c(C(=O)O)c2)cc1NC(=O)Nc1ccc(C)cc1
IC50 (HeLa): > 30 µM

Cc1ccc(NC(=O)Nc2cc(-c3cccc(C(=O)O)c3F)ccc2Oc2ccccc2C(C)(C)C)cc1
IC50 [1]: 4.5 µM | IC50 (HeLa): > 30 µM

COc1ccc(-c2ccc(Oc3cccc4c3CCCC4)c(NC(=O)Nc3ccccc3)c2)cc1C(=O)O
remaining at 10 min, 0.5 µM [2]: 92% | IC50 [1]: 0.062 µM | remaining at 10 min, 0.5 µM [4]: 96% | remaining at 10 min, 0.5 µM [6]: 80% | IC50 (HeLa): > 10 µM

COc1ccc(-c2ccc(Oc3ccccc3C)c(NC(=O)Nc3ccc(C)cc3)c2)cc1C(=O)O
IC50 (HeLa): > 30 µM

COc1ccc(-c2ccc(Oc3cccc4c3CCCC4)c(NC(=O)Nc3ccccc3F)c2)cc1C(=O)O
remaining at 10 min, 0.5 µM [2]: 72% | remaining at 10 min, 0.5 µM [4]: 77% | remaining at 10 min, 0.5 µM [6]: 95% | IC50 (HeLa): > 10 µM

COc1ccc(-c2ccc(Oc3cccc4c3CCCC4)c(NC(=O)Nc3ccc(C)cc3)c2)cc1C(=O)O
remaining at 10 min, 0.5 µM [2]: 95% | IC50 [1]: 0.1 µM | remaining at 10 min, 0.5 µM [4]: 69% | remaining at 10 min, 0.5 µM [6]: 100% | IC50 (HeLa): > 30 µM

CC(C)(C)c1ccccc1Oc1ccc(-c2cccc(C(=O)O)c2)cc1NC(=O)Nc1ccc(OC(F)F)cc1
IC50 [1]: 2.6 µM | IC50 (HeLa): > 30 µM

Cc1ccc(NC(=O)Nc2cc(-c3ccc(Cl)c(C(=O)O)c3)ccc2Oc2ccccc2C(C)(C)C)cc1
IC50 (HeLa): > 30 µM

COc1ccc(NC(=O)Nc2cc(-c3cccc(C(=O)O)c3)ccc2Oc2ccccc2C(C)(C)C)cc1
IC50 (HeLa): > 30 µM

CC(C)(C)c1ccccc1Oc1ccc(-c2cccc(C(=O)O)c2)cc1NC(=O)Nc1ccccc1
IC50 [1]: 1.5 µM | IC50 (HeLa): > 30 µM

COc1ccc(-c2ccc(Oc3cccc(C)c3C)c(NC(=O)Nc3ccc(C)cc3)c2)cc1C(=O)O
IC50 (HeLa): > 30 µM

Cc1ccccc1NC(=O)Nc1cc(-c2cccc(C(=O)O)c2)ccc1Oc1ccccc1C(C)(C)C
IC50 [1]: 1 µM | IC50 (HeLa): > 30 µM

COc1ccc(-c2ccc(Oc3ccccc3Cl)c(NC(=O)Nc3ccc(C)cc3)c2)cc1C(=O)O
IC50 (HeLa): > 30 µM

Cc1ccc(NC(=O)Nc2cc(-c3cccc(C(=O)O)c3)ccc2Oc2ccccc2C(C)(C)C)cc1
IC50 (HeLa): > 30 µM

CC(C)(C)c1ccccc1Oc1ccc(-c2cccc(C(=O)O)c2)cc1NC(=O)Nc1ccc(OC(F)(F)F)cc1
IC50 (Cytochrome P450 3A4 [3]): > 5 µM | IC50 [1]: 4 µM | IC50 (Cytochrome P450 2C19): > 5 µM | inhibition [7]: > 75% | IC50 (Cytochrome P450 3A4 [5]): > 5 µM | IC50 (Cytochrome P450 2B6): > 5 µM | IC50 [8]: 0.087 µM | IC50 (Cytochrome P450 2C9): 2.5 µM | IC50 (HeLa): 22 µM | IC50 (Cytochrome P450 2C8): > 5 µM | IC50 (Cytochrome P450 2D6): > 5 µM | IC50 (Cytochrome P450 1A2): > 5 µM

COc1ccc(-c2ccc(Oc3ccccc3C(C)C)c(NC(=O)Nc3ccc(C)cc3)c2)cc1C(=O)O
IC50 [1]: 0.34 µM | IC50 (HeLa): > 30 µM

COc1ccc(-c2ccc(Oc3ccccc3C(C)(C)C)c(NC(=O)Nc3ccc(C)cc3)c2)cc1C(=O)O
IC50 [1]: 0.35 µM | IC50 (HeLa): > 30 µM

COc1ccc(-c2ccc(Oc3cccc4c3CCCC4)c(NC(=O)Nc3ccccc3C)c2)cc1C(=O)O
remaining at 10 min, 0.5 µM [2]: 65% | IC50 (Cytochrome P450 3A4 [3]): > 3 µM | IC50 [1]: 0.049 µM | IC50 (Cytochrome P450 2C19): > 3 µM | remaining at 10 min, 0.5 µM [4]: 70% | IC50 (Cytochrome P450 3A4 [5]): > 3 µM | IC50 (Cytochrome P450 2B6): > 3 µM | IC50 (Cytochrome P450 2C9): > 3 µM | remaining at 10 min, 0.5 µM [6]: 41% | IC50 (HeLa): > 30 µM | IC50 (Cytochrome P450 2C8): > 3 µM | IC50 (Cytochrome P450 2D6): > 3 µM | IC50 (Cytochrome P450 1A2): > 3 µM

COc1ccc(-c2ccc(Oc3cccc4c3CCC4)c(NC(=O)Nc3ccc(C)cc3)c2)cc1C(=O)O
IC50 (HeLa): > 30 µM

CCOc1ccc(-c2ccc(Oc3ccccc3C(C)(C)C)c(NC(=O)Nc3ccc(C)cc3)c2)cc1C(=O)O
IC50 (HeLa): > 30 µM

C#CCOc1cccc(Oc2ccc(-c3ccc(OC)c(C(=O)O)c3)cc2NC(=O)Nc2ccc(C)cc2)c1C
IC50 (HeLa): > 30 µM

CC(C)(C)c1ccccc1Oc1ccc(-c2cccc(C(=O)O)c2)cc1NC(=O)Nc1ccc(Br)cc1
IC50 (HeLa): > 30 µM

COc1ccccc1Oc1ccc(-c2ccc(OC)c(C(=O)O)c2)cc1NC(=O)Nc1ccc(C)cc1
IC50 (HeLa): > 30 µM
